Among the data in patent US8859534B2, “2-carboxamide-7-piperazinyl-benzofuran derivatives” (AstraZeneca AB, priority 2009, dated 2014) are Ki and Kd values, retold here.

As usually defined, the pKi is −log10 of the Ki, conventionally taken in molar units. A higher pKi goes with a low Ki.

The target in assay [1] is 5-HT1A receptor (Homo sapiens (Human), UniProt P08908). The assay is described as follows: 5-HT1A receptor competition binding assay (SPA, [3H]-8-OH-DPAT). The settings on record: membranes of CHO cells expressing 5-HT1A receptors; radioligand [3H]-8-OH-DPAT 0.15-0.2 nM. The source says: (§1) Assays that were used to measure affinity of the compounds of the present invention for 5-HT1A and 5-HT1B receptors are described in J. Recept Signal Transduct. Res. 22:483-495 (2002) and Naunyn-Schmiedeberg's Arch Pharmacol. 356:328-334 (1997) and incorporated by reference herein. These assays were be used with some modifications:
(§2) For the binding assay stably transfected chinese hamster ovary (CHO) cell lines expressing 5-HT1A receptors or 5-HT1B receptors were harvested by centrifugation at 300×g for 10 min and resuspended in 10 mM Tris-HCl, 5 mM EDTA at pH 7.4. The cells were pooled, recentrifuged and resuspended before homogenisation using a Dounce homogeniser (“type B”). Cell membranes were centrifuged at 48 000×g for 10 min and then resuspended in harvesting buffer using an Ultra-Turrax T8 (IKA Labortechnik, Germany), aliquots were stored frozen in −70° C.
Frozen membrane preparations were thawed, homogenized with an Ultra-Turrax and mixed with SPA beads (YSI coated WGA, GE Healthcare/Amersham, Buckinghamshire, UK) in assay buffer containing 50 mM Tris-Base, 4 mM MgCl2, 4 mM CaCl2 (only 5-HT1B), 1 mM EDTA, and adjusted to pH 7.4 with HCl. […] The binding assays were performed in 384-well plates in a final volume of 90 μL/well with the following additions: 9 μL binding buffer; 1 μL compound/DMSO/nonspecific; 20 μL radioligand; and 60 μL beads/membrane mixture. Non-specific binding was defined by using 10 μM WAY100635 for 5-HT1A and 10 μM Methiothepin for 5-HT1B. The assay plates were incubated for 4 hours where after the plates are counted in a Wallac 1450 Microbeta Trilux counter (PerkinElmer LifeScience, US) or similar. Data from the experiments were analyzed using a four parameter logistic equation as follows: Y=Bottom+(Top-Bottom)/1+10^(LogEC50-X)nH.

In assay [2] the target is 5-HT1B receptor (Homo sapiens (Human), UniProt P28222). The assay is described as follows: 5-HT1B receptor competition binding assay (SPA, [3H]-GR125743). The settings on record: for pKi: membranes of CHO cells expressing 5-HT1B receptors, radioligand [3H]-GR125743 0.15-0.2 nM.
Excerpt: as §1, §2
Frozen membrane preparations were thawed, homogenized with an Ultra-Turrax and mixed with SPA beads (YSI coated WGA, GE Healthcare/Amersham, Buckinghamshire, UK) in assay buffer containing 50 mM Tris-Base, 4 mM MgCl2, 4 mM CaCl2 (only 5-HT1B), 1 mM EDTA, and adjusted to pH 7.4 with HCl. The beads/membrane solution, final concentration 100 pM receptors for 5-HT1A, 300 pM receptors for 5-HT1B and 0.5 mg SPA beads/well, was pre-incubated in room temperature with stirring for 30-60 min. […] Five (log interval, 10 μM to 1 nM, final concentration) or ten serial dilutions (½-log interval, 10 μM to 0.32 nM, final concentration) of compounds were prepared in DMSO from 10 mM stock solutions. The binding assays were performed in 384-well plates in a final volume of 90 μL/well with the following additions: 9 μL binding buffer; 1 μL compound/DMSO/nonspecific; 20 μL radioligand; and 60 μL beads/membrane mixture. Non-specific binding was defined by using 10 μM WAY100635 for 5-HT1A and 10 μM Methiothepin for 5-HT1B. The assay plates were incubated for 4 hours where after the plates are counted in a Wallac 1450 Microbeta Trilux counter (PerkinElmer LifeScience, US) or similar. Data from the experiments were analyzed using a four parameter logistic equation as follows: Y=Bottom+(Top-Bottom)/1+10^(LogEC50-X)nH.
• Jerning E., Rosqvist S., Mohell N. (2002) NAD-299 antagonises 5-HT-stimulated and Spiperone-inhibited [^35S]GTPγS binding in cloned 5-HT1A receptors. J Recept Signal Transduct Res 22:483-495. • Doménech T., Beleta J., Palacios J. M. (1997) Characterization of human serotonin 1D and 1B receptors using [^3H]-GR-125743, a novel radiolabelled serotonin 5HT1D/1B receptor antagonist. Naunyn-Schmiedeberg's Arch Pharmacol 356:328-334.

pKd, pKi: −log10 of the molar value.

5-HT1B receptor, sequence (P28222 whole entry): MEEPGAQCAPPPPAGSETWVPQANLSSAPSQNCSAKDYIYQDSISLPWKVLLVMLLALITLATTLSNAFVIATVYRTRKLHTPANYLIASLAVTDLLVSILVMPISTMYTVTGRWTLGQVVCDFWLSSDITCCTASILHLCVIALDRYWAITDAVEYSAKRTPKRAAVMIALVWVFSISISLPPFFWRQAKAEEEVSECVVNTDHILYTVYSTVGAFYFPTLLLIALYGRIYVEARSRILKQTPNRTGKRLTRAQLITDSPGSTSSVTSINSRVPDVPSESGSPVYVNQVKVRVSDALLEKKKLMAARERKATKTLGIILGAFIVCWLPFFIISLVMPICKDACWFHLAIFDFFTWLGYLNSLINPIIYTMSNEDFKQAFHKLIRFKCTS
5-HT1A receptor, sequence (P08908 whole entry): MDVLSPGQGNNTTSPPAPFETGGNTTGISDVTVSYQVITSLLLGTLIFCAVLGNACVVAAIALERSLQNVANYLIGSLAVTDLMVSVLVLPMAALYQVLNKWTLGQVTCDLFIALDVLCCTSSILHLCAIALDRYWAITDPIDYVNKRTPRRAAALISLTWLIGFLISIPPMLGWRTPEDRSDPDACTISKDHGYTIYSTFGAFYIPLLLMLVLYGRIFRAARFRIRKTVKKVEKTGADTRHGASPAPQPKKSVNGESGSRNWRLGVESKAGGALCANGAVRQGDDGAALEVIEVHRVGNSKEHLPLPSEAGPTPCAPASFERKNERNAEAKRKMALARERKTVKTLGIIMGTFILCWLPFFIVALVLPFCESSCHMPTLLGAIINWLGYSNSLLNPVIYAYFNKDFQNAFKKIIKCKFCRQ

Regarding `O=C(NCc1ccccn1)c1cc2cccc(N3CCN(CCc4ccccn4)CC3)c2o1` [Example 1, 7-(4-(2-(Pyridin-2-yl)ethyl)piperazin-1-yl)-N-(pyridin-2-ylmethyl)benzofuran-2-carboxamide], the pKi is 8.89 in assay [1] and 7.72 in assay [2].
For the molecule `O=C(Nc1ccc(N2CCOCC2)cc1)c1cc2cccc(N3CCN(CCc4ccccn4)CC3)c2o1` [Example 2, N-(4-Morpholinophenyl)-7-(4-(2-(pyridin-2-yl)ethyl)piperazin-1-yl)benzofuran-2-carboxamide], the figures for the pKi in assay [1] and in assay [2] were 8.89 and 8.96, respectively.
Taken in the same sequence, the figures for `O=C(NC1CCN(c2ccccc2)CC1)c1cc2cccc(N3CCN(CCc4ccccn4)CC3)c2o1` [Example 3, N-(1-Phenylpiperidin-4-yl)-7-(4-(2-(pyridin-2-yl)ethyl)piperazin-1-yl)benzofuran-2-carboxamide] were 9.85 and 9.28.
For `CS(=O)(=O)c1ccc(CNC(=O)c2cc3cccc(N4CCN(CCc5ccccn5)CC4)c3o2)cc1` [Example 4, N-(4-(Methylsulfonyl)benzyl)-7-(4-(2-(pyridin-2-yl)ethyl)piperazin-1-yl)benzofuran-2-carboxamide], the values for the pKi in assay [1] and in assay [2] were 9.70 and 8.74, respectively.
Take `Cn1cnc(CNC(=O)c2cc3cccc(N4CCN(CCc5ccccn5)CC4)c3o2)c1` [Example 5, N-((1-Methyl-1H-imidazol-4-yl)methyl)-7-(4-(2-(pyridin-2-yl)ethyl)piperazin-1-yl)benzofuran-2-carboxamide]: the values for the pKi in assay [1] and in assay [2] were 8.66 and 7.43, respectively.
With `CC(=O)N1CCC(NC(=O)c2cc3cccc(N4CCN(CCc5ccccn5)CC4)c3o2)CC1` [Example 6, N-(1-Acetylpiperidin-4-yl)-7-(4-(2-(pyridin-2-yl)ethyl)piperazin-1-yl)benzofuran-2-carboxamide], the pKi in assay [2] is 7.09.
Take `CC(NC(=O)c1cc2cccc(N3CCN(CCc4ccccn4)CC3)c2o1)c1ccccn1` (stereo not drawn) [Example 7, N-(1-(Pyridin-2-yl)ethyl)-7-(4-(2-(pyridin-2-yl)ethyl)piperazin-1-yl)benzofuran-2-carboxamide]: the pKi is 9.23 in assay [1] and 8.05 in assay [2].
As to `O=C(NC1CCN(c2ncccc2Cl)CC1)c1cc2cccc(N3CCN(CCc4ccccn4)CC3)c2o1` [Example 8, N-(1-(3-Chloropyridin-2-yl)piperidin-4-yl)-7-(4-(2-(pyridin-2-yl)ethyl)piperazin-1-yl)benzofuran-2-carboxamide], the negative logarithm of the Ki (pKi) in assay [1] was 9.54; in assay [2], 9.55.
`N#Cc1ccc(CNC(=O)c2cc3cccc(N4CCN(CCc5ccccn5)CC4)c3o2)cc1` [Example 9, N-(4-Cyanobenzyl)-7-(4-(2-(pyridin-2-yl)ethyl)piperazin-1-yl)benzofuran-2-carboxamide] gave a pKi in assay [1] of 9.36.
As for `CN(C)C(=O)c1cc2cccc(N3CCN(CCc4ccccn4)CC3)c2o1` [Example 11, N,N-Dimethyl-7-(4-(2-(pyridin-2-yl)ethyl)piperazin-1-yl)benzofuran-2-carboxamide], the pKi in assay [1] is 9.80; in assay [2], 8.68.
Taken in the same sequence, the figures for `CNC(=O)c1cc2cccc(N3CCN(CCc4ccccn4)CC3)c2o1` [Example 12, N-Methyl-7-(4-(2-(pyridin-2-yl)ethyl)piperazin-1-yl)benzofuran-2-carboxamide] were 9.96 and 9.06.
For the molecule `O=C(NC1CC1)c1cc2cccc(N3CCN(CCc4ccccn4)CC3)c2o1` [Example 13, N-Cyclopropyl-7-(4-(2-(pyridin-2-yl)ethyl)piperazin-1-yl)benzofuran-2-carboxamide], the pKi in assay [2] was 8.19.
Take `O=C(NC1CC(F)(F)C1)c1cc2cccc(N3CCN(CCc4ccccn4)CC3)c2o1` [Example 14, N-(3,3-Difluorocyclobutyl)-7-(4-(2-(pyridin-2-yl)ethyl)piperazin-1-yl)benzofuran-2-carboxamide]: the figures for the pKi in assay [1] and in assay [2] were 8.48 and 7.38, respectively.
Taken in the same sequence, the figures for `O=C(c1cc2cccc(N3CCN(CCc4ccccn4)CC3)c2o1)N1CCC1` [Example 15, Azetidin-1-yl(7-(4-(2-(pyridin-2-yl)ethyl)piperazin-1-yl)benzofuran-2-yl)methanone] were 8.85 and 7.80.
Taken in the same sequence, the figures for `O=C(c1cc2cccc(N3CCN(CCc4ccccn4)CC3)c2o1)N1CCCC1` [Example 16, (7-(4-(2-(Pyridin-2-yl)ethyl)piperazin-1-yl)benzofuran-2-yl)(pyrrolidin-1-yl)methanone] were 9.11 and 8.36.
Consider `CS(=O)(=O)Cc1ccc(CNC(=O)c2cc3cccc(N4CCN(CCc5ccccn5)CC4)c3o2)cc1` [Example 17, N-(4-(Methylsulfonylmethyl)benzyl)-7-(4-(2-(pyridin-2-yl)ethyl)piperazin-1-yl)benzofuran-2-carboxamide], for which the pKi in assay [1] is 8.70; in assay [2] it was 8.48.
Taken in the same sequence, the figures for `COc1cccc(CCNC(=O)c2cc3cccc(N4CCN(CCc5ccccn5)CC4)c3o2)c1` [Example 18, N-(3-Methoxyphenethyl)-7-(4-(2-(pyridin-2-yl)ethyl)piperazin-1-yl)benzofuran-2-carboxamide] were 8.89 and 9.15.
`CN(Cc1cccc(S(C)(=O)=O)c1)C(=O)c1cc2cccc(N3CCN(CCc4ccccn4)CC3)c2o1` [Example 19, N-Methyl-N-(3-(methylsulfonyl)benzyl)-7-(4-(2-(pyridin-2-yl)ethyl)piperazin-1-yl)benzofuran-2-carboxamide]: the results for the pKi in assay [1] and in assay [2] were 9.00 and 8.00, respectively.
In assay [2], `Cn1cnc(CCNC(=O)c2cc3cccc(N4CCN(CCc5ccccn5)CC4)c3o2)c1` [Example 30, N-(2-(1-Methyl-1H-imidazol-4-yl)ethyl)-7-(4-(2-(pyridin-2-yl)ethyl)piperazin-1-yl)benzofuran-2-carboxamide] showed a pKi of 7.77.
Still for that read-out and setting: the value for `COc1ccnc(CCN2CCN(c3cccc4cc(C(=O)N(C)C)oc34)CC2)c1` [Example 39, 7-(4-(2-(4-Methoxypyridin-2-yl)ethyl)piperazin-1-yl)-N,N-dimethylbenzofuran-2-carboxamide] was 7.18.
For `CN(C)C(=O)c1cc2cccc(N3CCN(CCc4cc(C#N)ccn4)CC3)c2o1` [Example 41, 7-(4-(2-(4-Cyanopyridin-2-yl)ethyl)piperazin-1-yl)-N,N-dimethylbenzofuran-2-carboxamide], the negative-log Ki (pKi) in assay [2] was 7.14.
In assay [1], `COc1cccnc1CCN1CCN(c2cccc3cc(C(=O)N(C)C)oc23)CC1` [Example 48, 7-(4-(2-(3-Methoxy-2-pyridyl)ethyl)piperazin-1-yl)-N,N-dimethylbenzofuran-2-carboxamide] showed a pKi of 9.80.
On to `CC(=O)N1CCc2cc(CCN3CCN(c4cccc5cc(C(=O)N6CCC6)oc45)CC3)ccc21` [Example 49, 1-(5-(2-(4-(2-(Azetidine-1-carbonyl)benzofuran-7-yl)piperazin-1-yl)ethyl)indolin-1-yl)ethanone], for which the pKi in assay [2] is 7.85.
For the molecule `COc1ccc(NC(=O)c2ccc(-c3ccncc3)c(C)c2)cc1N1CCN(C)CC1` [[^3H]-GR125743, reference compound], the pKd in assay [2] (5-HT1B receptor, Kd used in the calculation of Ki, read-out: Kd of radioligand, saturation binding studies) was 9.06.
